Measured values: patent US11999750B2, “Crystalline forms of (S)-5-benzyl-N-(5-methyl-4-oxo-2,3,4,5-tetrahydropyrido [3,2-B][1,4]oxazepin-3-yl)-4H-1,2,4-triazole-3-carboxamide” (Denali Therapeutics Inc., priority 2022, dated 2024)
≈ marks a conversion by molar mass, not a printed value. Entries after “also recorded” stand apart in the source; their conditions may differ.

How the values were obtained:
Assay type in all cases: physicochemical
[1] = Slurry competition experiments (inter-conversion study of crystal forms); settings: for Thermodynamic stability relationship / conversion in slurry: slurry in H2O and n-Heptane for 2 days, RT and 70° C.
Method: To understand the thermodynamic stability relationship between Form A, B and C, slurry competition experiments in H2O and n-Heptane were performed at RT and 70° C. Prior to the study, the starting material (Form A of Compound (I)) was used to saturate the corresponding solvent at RT and 70° C. before filtered to obtain a near-saturated solution. Equal amounts (˜ 5 mg) of Form A, Form B and Form C were weighed and then added to 0.3 mL of the prepared solution to form a new suspension, which was stirred magnetically (˜1000 rpm) at RT/70° C. for about 2 days.

[2] = Dynamic Vapor Sorption (DVS); settings: for Weight gain by DVS: 0 percent to 95 percent relative humidity; for Weight gain by DVS / Hygroscopicity: about 25 degrees centigrade; for Form change after DVS test: XRPD after DVS, 25° C., 0 to 95% RH; for Hygroscopicity: no hygroscopicity = weight gain less than 0.2 weight percent, 0 to 95 percent RH
Method: DVS was measured via a SMS (Surface Measurement Systems) DVS Intrinsic. The relative humidity at 25° C. were calibrated against deliquescence point of LiCl, Mg(NO3)2 and KCl. To investigate the solid form stability as a function of humidity, DVS isotherm plots of Form A, Form B, and Form C were collected at 25° C. between 0 and 95% RH. […] As determined by Dynamic Vapor Sorption (DVS) in the range of from 0 percent to 95 percent relative humidity at a temperature of about 25 degrees centigrade (plus or minus 0.2 degrees C.), the crystalline Form A, Form B, and Form C of Compound (I) show a weight gain of about 0.09 weight percent, 0.07 weight percent, and 5.7 weight percent, respectively.

[3] = Kinetic solubility in bio-relevant media (SGF, FaSSIF, FeSSIF) and H2O at 37° C.; settings: for solubility at 24 h / solubility at 4 h: 37 °C, thermodynamic from solid; for Form change after kinetic solubility test: bio-relevant media or H2O, XRPD of residual solids
Method: Kinetic solubility tests of Form A, Form B, and Form C was performed in bio-relevant media (SGF, FaSSIF and FeSSIF) and H2O at 37° C. Solids were suspended into FaSSIF, FeSSIF, SGF and H2O with target conc. of ˜10 mg/mL. The suspensions were agitated on a rolling incubator at 25 rpm (in the incubator set at 37° C.) for 1, 4 and 24 hrs. At each time point, 1 mL of the suspension was pipetted out for centrifugation at 25000 rpm (3 min) and filtration through 0.45 μm membrane to obtain supernatant for HPLC solubility and pH tests. The residual solids were analyzed by XRPD. […] The solubility of Form A/B/C was summarized from Table 22-24.

[4] = Physical and chemical stability on storage (XRPD and HPLC); settings: 40° C./75% RH; 25° C./60% RH; 60° C.; two and four weeks
Method: To evaluate the physical and chemical stability, Form A, Form B, and Form C were stored in 3 conditions (40° C./75% RH; 25° C./60% RH; and 60° C.) for two and four weeks. All samples were characterized using XRPD and HPLC.

[5] = Equilibrium solubility in pH buffers, residual solid by XRPD; settings: 8 pH buffers (pH 1.0-8.0), RT, 24 hrs, XRPD of residual solids
Method: Equilibrium solubility of Form B was measured in 8 pH buffers (i.e., pH 1.0, 2.0, 3.0, 4.0, 5.0, 6.0, 7.0, 8.0) at RT for 24 hrs. Solids were suspended into pH buffers with target conc. of ˜10 mg/mL. The suspensions were slurried at RT for 24 hrs (1000 rpm), prior to centrifugation at 20000 rpm (2 min), and filtration through 0.45 μm membrane to obtain supernatant for HPLC solubility and pH tests. The residual solids were analyzed by XRPD.

[6] = Form identification by heating to 100° C. and cooling to RT (XRPD comparison)
Method: A weight loss of 5.7% up to 100° C. was observed on the TGA curve for Form C prepared by evaporation. […] (peak temperature) and 124.9° C. (onset temperature). […] (peak temperature) and 127.0° C. (onset temperature) were observed on the DSC curve. For form identification, variable-temperature XRPD (VT-XRPD) was performed for Form C. […] Considering the large TGA weight loss and no XRPD change after removal of water/solvent (VT-XRPD). Single crystal structure determination confirmed that Form C is a channel hydrate (without form change after dehydration).
A two-stage weight loss of 3.8% up to 85° C. and 11.5% from 85° C. to 120° C. was observed on the TGA curve. […] For form identification, Form D was heated to 100° C. and cooled to RT. […] According to the results, Form D was characterized to be an IPA solvate.

[7] = Exposure to ambient condition (XRPD comparison)
Source text: Therefore, TGA and DSC characterizations were not performed for Form E. According to the single crystal structure determination results, Form E is a DCM solvate.

SMILES: CN1C(=O)[C@@H](NC(=O)c2nnc(Cc3ccccc3)[nH]2)COc2cccnc21 [Form A + B + C]
- Crystal form after slurry competition ([1]; H2O or n-Heptane, RT or 70° C., about 2 days (experiments 1-4, merged cell)): Form B

SMILES: CN1C(=O)[C@@H](NC(=O)c2nnc(Cc3ccccc3)[nH]2)COc2cccnc21 [Form A, (S)-5-benzyl-N-(5-methyl-4-oxo-2,3,4,5-tetrahydropyrido [3,2-b][1,4]oxazepin-3-yl)-4H-1,2,4-triazole-3-carboxamide]
- Weight gain by DVS [2]: about 0.09 weight percent
- Form change after DVS test [2]: no form change
- Hygroscopicity [2]: no hygroscopicity; also recorded: less hygroscopic
- Thermodynamic stability relationship / conversion in slurry [1]: converted to Form B
- solubility at 24 h ([3]; FaSSIF, pH 6.5, fassif, FaSSIF (pH 6.5), 24 hr): 100 µg/mL (≈ 264 µM)
- Solubility ([3]; FeSSIF (pH 5.0), 1 hr): 120 µg/mL (≈ 317 µM)
- solubility at 4 h ([3]; FeSSIF, pH 5, fessif, FeSSIF (pH 5.0), 4 hr): 120 µg/mL (≈ 317 µM)
- solubility at 24 h ([3]; FeSSIF, pH 5, fessif, FeSSIF (pH 5.0), 24 hr): 120 µg/mL (≈ 317 µM)
- Solubility ([3]; H2O (pH 6.5), 1 hr): 80 µg/mL (≈ 211 µM)
- solubility at 4 h ([3]; SGF, pH 1.8, simulated gastric fluid, SGF (pH 1.8), 4 hr): 100 µg/mL (≈ 264 µM)
- solubility at 24 h ([3]; SGF, pH 1.8, simulated gastric fluid, SGF (pH 1.8), 24 hr): 100 µg/mL (≈ 264 µM)
- Form change after kinetic solubility test [3]: No form change
- solubility at 4 h ([3]; water, pH 6.5, water, H2O (pH 6.5), 4 hr): 90 µg/mL (≈ 238 µM)
- solubility at 24 h ([3]; water, pH 6.5, water, H2O (pH 6.5), 24 hr): 90 µg/mL (≈ 238 µM)
- Form change on storage (XRPD) [4]: no observable form change
- HPLC purity change on storage [4]: no noticeable HPLC purity change

SMILES: CN1C(=O)[C@@H](NC(=O)c2nnc(Cc3ccccc3)[nH]2)COc2cccnc21 [Form B, (S)-5-benzyl-N-(5-methyl-4-oxo-2,3,4,5-tetrahydropyrido [3,2-b][1,4]oxazepin-3-yl)-4H-1,2,4-triazole-3-carboxamide]
- Weight gain by DVS [2]: ~0.07 weight percent
- Form change after DVS test [2]: no form change
- Hygroscopicity [2]: less hygroscopic; also recorded: no hygroscopicity; also recorded: not hygroscopic
- Thermodynamic stability relationship / conversion in slurry [1]: thermodynamically more stable
- Solubility ([3]; FaSSIF (pH 6.5), 1 hr): 80 µg/mL (≈ 211 µM)
- Solubility ([3]; FaSSIF (pH 6.5), 4 hr): 90 µg/mL (≈ 238 µM)
- Solubility ([3]; FaSSIF (pH 6.5), 24 hr): 90 µg/mL (≈ 238 µM)
- Solubility ([3]; FeSSIF (pH 5.0), 1 hr): 100 µg/mL (≈ 264 µM)
- Solubility ([3]; FeSSIF (pH 5.0), 4 hr): 110 µg/mL (≈ 291 µM)
- Solubility ([3]; FeSSIF (pH 5.0), 24 hr): 100 µg/mL (≈ 264 µM)
- Solubility ([3]; H2O (pH 6.5), 1 hr): 70 µg/mL (≈ 185 µM)
- Solubility ([3]; H2O (pH 6.5), 4 hr): 70 µg/mL (≈ 185 µM)
- Solubility ([3]; H2O (pH 6.5), 24 hr): 70 µg/mL (≈ 185 µM)
- Solubility ([3]; SGF (pH 1.8), 1 hr): 80 µg/mL (≈ 211 µM)
- Solubility ([3]; SGF (pH 1.8), 4 hr): 80 µg/mL (≈ 211 µM)
- Solubility ([3]; SGF (pH 1.8), 24 hr): 80 µg/mL (≈ 211 µM)
- Form change after kinetic solubility test [3]: No form change
- Form change on storage (XRPD) [4]: no observable form change
- HPLC purity change on storage [4]: no noticeable HPLC purity change
- Form change after equilibrium solubility evaluation [5]: No form change

SMILES: CN1C(=O)[C@@H](NC(=O)c2nnc(Cc3ccccc3)[nH]2)COc2cccnc21 [Form C, (S)-5-benzyl-N-(5-methyl-4-oxo-2,3,4,5-tetrahydropyrido [3,2-b][1,4]oxazepin-3-yl)-4H-1,2,4-triazole-3-carboxamide]
- Weight gain by DVS [2]: ~5.7 weight percent
- Form change after DVS test [2]: no form change
- Thermodynamic stability relationship / conversion in slurry [1]: converted to Form B
- Solubility ([3]; FaSSIF (pH 6.5), 1 hr): 860 µg/mL (≈ 2270 µM)
- Solubility ([3]; FaSSIF (pH 6.5), 4 hr): 730 µg/mL (≈ 1930 µM)
- Solubility ([3]; FaSSIF (pH 6.5), 24 hr): 150 µg/mL (≈ 396 µM)
- Solubility ([3]; FeSSIF (pH 5.0), 1 hr): 970 µg/mL (≈ 2560 µM)
- Solubility ([3]; FeSSIF (pH 5.0), 4 hr): 150 µg/mL (≈ 396 µM)
- Solubility ([3]; FeSSIF (pH 5.0), 24 hr): 170 µg/mL (≈ 449 µM)
- Solubility ([3]; H2O (pH 6.5), 1 hr): 440 µg/mL (≈ 1160 µM)
- Solubility ([3]; H2O (pH 6.5), 4 hr): 100 µg/mL (≈ 264 µM)
- Solubility ([3]; H2O (pH 6.5), 24 hr): 100 µg/mL (≈ 264 µM)
- Solubility ([3]; SGF (pH 1.8), 1 hr): 700 µg/mL (≈ 1850 µM)
- Solubility ([3]; SGF (pH 1.8), 4 hr): 110 µg/mL (≈ 291 µM)
- Solubility ([3]; SGF (pH 1.8), 24 hr): 100 µg/mL (≈ 264 µM)
- Form change after kinetic solubility test [3]: converted to Form A
- Final Form ([3]; residual solid by XRPD, H2O (pH 6.5), 1 hr): A + C
- Form change on storage (XRPD) [4]: no observable form change
- HPLC purity change on storage [4]: no noticeable HPLC purity change
- Form change after heating to 100° C. and cooling to RT [6]: no form change

SMILES: CN1C(=O)[C@@H](NC(=O)c2nnc(Cc3ccccc3)[nH]2)COc2cccnc21 [Form D, (S)-5-benzyl-N-(5-methyl-4-oxo-2,3,4,5-tetrahydropyrido [3,2-b][1,4]oxazepin-3-yl)-4H-1,2,4-triazole-3-carboxamide]
- Form change after heating to 100° C. and cooling to RT [6]: converted to Form C

SMILES: CN1C(=O)[C@@H](NC(=O)c2nnc(Cc3ccccc3)[nH]2)COc2cccnc21 [Form E, (S)-5-benzyl-N-(5-methyl-4-oxo-2,3,4,5-tetrahydropyrido [3,2-b][1,4]oxazepin-3-yl)-4H-1,2,4-triazole-3-carboxamide]
- Form change on exposure to ambient condition [7]: converted to Form C
